According to patent US9150528B2, “Compound having detrusor muscle-contracting activity and urethral sphincter muscle-relaxing activity” (ONO PHARMACEUTICAL CO., LTD., priority 2009, dated 2015):
Blank lines part the entries; values can stand above or below the compound they belong to.

Key:
[1] = tested on: male rats; assay: Digestive symptoms after repeated oral administration; assay type: in vivo, rat; conditions: 0.1 mg/kg oral, repeated for 4 days
Procedure: Using male rats, aged 6 weeks, general states of the rats were observed after repeating oral administration of the test compound at a dose of 0.1 mg/kg for 4 days. To a control, injectable water which is a medium was administered.

[2] = tested on: normal rats; assay: Blood pressures and heart rates in normal rats; assay type: in vivo, rat; conditions: 0.3 mg/kg, oral
Procedure: The blood pressures and heart rates of female Wistar rats were measured in accordance with the following procedure. On the day of measurement, indwelling of catheters for blood pressure•heart rate measurement was carried out under anesthesia with ether. The back of the neck of each rat was incised; a feeding catheter (Atom Medical Corporation) filled with heparinized physiological saline was introduced from the back of the neck; the catheter was inserted into the common carotid artery; and the surgical incision was closed. The measurements were carried out in a Bollmann cage under the conscious state, and the evaluations were carried out after confirming that the individual parameters were stabilized. After confirming the stabilization of blood pressure and heart rate, the test compound which was prepared using injectable water containing equimolar NaOH was orally administered at a dose of 5 mL/kg.
The catheter drawn from the back of the neck was connected to a pressure transducer (DX-200, NIHON KOHDEN CORP.), and the blood pressures and heart rates were measured using an amplifier for pressure measurement (Gould Instrument). The blood pressures and heart rates were recorded using a recorder (LINEARCORDERWR3320, GRAPHTEC). For each individual, rates of increase and decrease in average blood pressure and heart rate before administration and 30, 60, 120, and 180 min after administration were calculated with respect to the values of each individual before administration. Changes in blood pressure and heart rate before and after administration of the test compound were evaluated.

[3] = Systemic clearance after intravenous administration; assay type: in vivo; conditions: plasma, cynomolgus monkey, 0.001 mg/mL/kg
Procedure: Equimolar sodium hydroxide and injectable distilled water were added to each of the test compounds to prepare a 1 mg/mL aqueous solution. The aqueous solution was diluted with physiological saline until the concentration reached 0.001 mg/mL and was rapidly administered at a dose of 0.001 mg/mL/kg to cynomolgus monkey through the cephalic vein. Via heparinized syringes, 2 min, 5 min, 15 min, 30 min, 1 hr, 2 hr, 4 hr, 6 hr, 8 hr and 24 hr after administration, blood was drawn from the cephalic vein (non-administered sites). After centrifugation, blood plasma was sampled and stored at −80° C. before pretreatment. The blood plasma was pretreated by mixing with acetonitrile and centrifuging to remove proteins followed by measurement by LC/MS/MS. Changes of concentration in blood plasma was analyzed using WinNonlin4.0.1 to evaluate the systemic clearance of the test compound.

[4] = tested on: urinary excretion dysfunction models; assay: Urinary excretion dysfunction models, maximal urinary flow rate; assay type: in vivo; conditions: 60 ng/kg/h continuous intravenous, cynomolgus monkey urinary excretion dysfunction model
Description: Urinary excretion dysfunction models were constructed in accordance with the following procedure. After anesthesia of cynomolgus monkeys, the region from the suprapubic area to the abdominal area was shaved, followed by fixing in a dorsal position. The shaved region was disinfected and the four legs were fixed. Using an electrosurgical knife, the skin region from the suprapubic area to the umbilical area and the peritoneal membrane were sequentially incised, followed by damage to the pelvic nerve and removal of the uterus. After the surgical operation, viccillin-containing physiological saline was added dropwise to the incised area. The peritoneal membrane and skin of the incised area were sutured with silk threads and disinfected. Viccillin was administered for 7 consecutive days after surgery. Meloxicam was administered once daily for 7 consecutive days to manage pain in the perioperative period.
The cynomolgus monkeys were seated on monkey chairs, followed by retention of the hands and legs with strings. Injectable water was administered orally, and physiological saline and the test compound (60 ng/kg/h) were continuously administered intravenously to allow urination freely. The maximal urinary flow rate was measured using a urine weighing sensor.

[5] = Parallel artificial membrane permeability assay (PAMPA); assay type: in vitro ADME; conditions: sum of pH 5.0, 6.2 and 7.4, 25° C., read-out: membrane permeability coefficients (PAMPA(SUM))
Procedure: The permeability of the drugs through artificial membranes was measured by parallel artificial membrane permeability assay (PAMPA) under the following conditions. For the measurements, a PAMPA system (pION) was used. The membrane permeability was evaluated by measuring membrane permeability coefficients at three pH values and summing the values (PAMPA(SUM)(cm/sec)).
Lipid membrane: GIT-0 (pION)
Incubation temperature: 25° C.
Donor: 5% DMSO-containing buffer
Compound concentration: 50 μmol/L

[6] = tested on: spontaneously hypertensive rats; assay: Blood pressure and heart rate measurement in hypertensive rats; assay type: in vivo, rat; conditions: continuous intravenous
Procedure: The blood pressures and heart rates of male spontaneously hypertensive rats were measured. On the day of measurement, indwelling of catheters for blood pressure•heart rate measurement and subject substance administration was carried out under anesthesia with ether. The back of the neck of each rat was incised, a feeding catheter (Atom Medical Corporation) filled with heparinized physiological saline was introduced from the back of the neck; the catheter was inserted into the common carotid artery and internal jugular vein; and the surgical incision was closed. The measurements were conducted in a Bollmann cage under the conscious state and evaluations were carried out after confirming that the individual parameters were stabilized. After confirming the stabilization of blood pressure and heart rate, the test compound was continuously administered intravenously at a flow rate of 5 mL/kg/h for 30 min.
The catheter drawn from the back of the neck was connected to a pressure transducer (DX-200, NIHON KOHDEN CORP.), and the blood pressures and heart rates were measured using a blood pressure amplifier (Gould instrument). The blood pressures and heart rates were recorded on recording paper using a recorder (LINEARCORDER WR3320, GRAPHTEC). The blood pressures and heart rates were converted into values on the recording paper before administration and 2.5, 5, 10, 15, 30, 45 and 60 min after administration. For each individual, rates of increase and decrease in the parameters were evaluated relative to the value before administration (value at 0 min).

[7] = tested on: cynomolgus monkeys; assay: Effects on cardiac function in anesthetized cynomolgus monkeys; assay type: in vivo, cynomolgus monkey; conditions: continuous intravenous 30 min
Procedure: Cynomolgus monkeys were anesthetized with pentobarbital (at an initial dose of 20-30 mg/kg by intravenous administration; at a dose of 4-5 mg/kg/hr by intravenous continuous administration). A tracheal tube was inserted and experiments were carried out under artificial respiration (fresh air+pure oxygen, ventilatory volume: 10-15 mL/kg, ventilation frequency: 10-15 times/min). In the right lying position, the left thorax was opened between the fourth and fifth intercostal spaces. The […] (the origin of the left anterior descending artery or circumflex branch) and the origin of the ascending main artery were peeled off and transducers for blood flow measurement were located there. The blood flow rates were measured using an electronic blood flowmeter or an ultrasonic blood flowmeter. The blood pressures were measured using a pressure transducer in a state where a catheter was inserted into the right femoral artery. The left ventricular internal pressure was measured in a state where a catheter was inserted from the left carotid artery into the left ventricle. The electrocardiogram was measured using needle electrodes installed in the right armpit and the left thorax. After catheters for administration were inserted into the right and left cephalic veins and femoral veins, the test compound, pentobarbital (under anesthesia) or an aqueous solution (SOLITA T3 containing 1.2% NaHCO3) were administered therethrough. The test compound was continuously administered intravenously 30 min using a continuous infusion system. The blood pressure, left ventricular internal pressure, blood flow rate through the coronary artery and electrocardiogram data were simultaneously inputted to a PowerLab system (LabChart6, AD instruments) to measure/calculate average blood pressure, heart rate, average blood flow rate through the coronary artery, beat volume, stroke volume (beat volume/heart rate), maximum first deviation of the left ventricular internal pressure, total peripheral blood vessel resistance (average blood pressure/beat volume), cardiac performance (average blood pressure x beat volume) and double product (systolic arterial pressure x heart rate), which is indicative of myocardial oxygen consumption.
The averages of all evaluation parameters for 1 min were obtained before administration, immediately after administration, and 10 min, 20 min and 30 min after administration, and changes of the averages relative to the value measured before administration which is defined as 100% were calculated.

[8] = tested on: human lyophilized liver cells; assay: Stability evaluation in lyophilized liver cells; assay type: in vitro ADME; conditions: 37° C.
Procedure: KHEM5100 medium which includes human lyophilized liver cells after dissolving (final concentration of living cells: 1×10^6 cells/mL) and the test compound (acetonitrile or methanol solution, final concentration≦1%) was incubated at 37° C. Immediately after reaction and with the passage of reaction time, some portions were sampled from the medium. The concentrations of the test compound in the samples were measured by LC/MS/MS. The residual rate of the test compound relative to immediately after reaction was calculated by the following equation: Residual rate=the concentration of the test compound in the sample after reaction/the concentration of the test compound in the sample immediately after reaction×100(%) The residual rates were plotted on a single logarithmic scale against reaction time to calculate loss rate constants. The test was repeated (n=2), and the obtained values were averaged.

digestive symptoms such as soft feces [1]: soft feces were observed
SMILES: C[C@@](O)(C/C=C/[C@H]1CCC(=O)[C@@H]1CCSc1nc(C(=O)O)cs1)CCCC(F)(F)F [Comparative compound C, 2-[(2-{(1R,5R)-2-oxo-5-[(1E,4S)-8,8,8-trifluoro-4-hydroxy-4-methyl-1-octenyl]cyclopentyl}ethyl)thio]-1,3-thiazole-4-carboxylic acid]
effect on the blood pressure [2]: tendency to decrease | increase in heart rate [2]: about 20%

clearance [3]: 23.9 mL/min/kg
SMILES: C=CCC[C@](C)(O)C/C=C/[C@H]1CCC(=O)[C@@H]1CCSc1nc(C(=O)O)cs1 [Comparative compound D, 2-[(2-{(1R,2R)-2-[(1E,4S)-4-hydroxy-4-methyl-1,7-octadien-1-yl]-5-oxocyclopentyl}ethyl)thio]-1,3-thiazole-4-carboxylic acid]
improvement in maximal urinary flow rate over the vehicle group [4]: 36% | effect on the blood pressure [2]: tendency to decrease | increase in heart rate [2]: about 20%

Papp at 4 hr, 50 μmol/L [5]: 0.6 ×10⁻⁶ cm/s
SMILES: C[C@@](O)(C/C=C/[C@H]1COC(=O)N1CCSc1nc(C(=O)O)cs1)CCCC(F)(F)F [Comparative compound E, 2-[(2-{(4S)-2-oxo-4-[(1E,4S)-8,8,8-trifluoro-4-hydroxy-4-methyl-1-octenyl]-1,3-oxazolidin-3-yl}ethyl)sulfanyl]-1,3-thiazole-4-carboxylic acid, reference compound]

effect on the cardiac functions [7]: inhibitory effect | Residual rate ([8]; Reaction time 0 h): 100% | Residual rate ([8]; Reaction time 0.5 h): 91.5% | Residual rate ([8]; Reaction time 1 h): 78.1% | Residual rate ([8]; Reaction time 1 h, listed as comparative compound B): ≤ 80% | Residual rate ([8]; Reaction time 2 h): 62.3% | Residual rate ([8]; Reaction time 2 h, listed as comparative compound B): about 60%
SMILES: CCCCC[C@](C)(O)C/C=C/[C@H]1CCC(=O)[C@@H]1CCSc1nc(C(=O)O)cs1 [Comparative compound B, 2-[(2-{(1R,2R)-2-[(1E,4S)-4-hydroxy-4-methyl-1-nonen-1-yl]-5-oxocyclopentyl}ethyl)thio]-1,3-thiazole-4-carboxylic acid, reference compound]
reduction of blood pressure ([6]; 100 ng/kg/min): about 10% | reduction of blood pressure ([6]; 300 ng/kg/min): about 25% | improvement in maximal urinary flow rate over the vehicle group [4]: 27% | effect on the blood pressure [2]: tendency to decrease | increase in heart rate [2]: about 20%
